In patent publication US8785431B2, “Prodrugs of (1S,9S)-9-[[(1S)-1-carboxy-3-phenylpropyl]amino]octahydro-10-oxo-6H-pyridazino[1,2-a][1,2]diazepine-1-carboxylic acid and their use in transdermal therapeutic systems” (Hexal AG, priority 2011, dated 2014):

How the values were obtained:
[1] = Rate of hydrolysis in porcine skin homogenate at 37° C. (HPLC or HPLC-MS); format: in vitro ADME; settings: for half-life: pig; for reaction kinetics in porcine skin homogenate: in words
Description: (§1) To assess whether the synthesised cilazapril prodrugs undergo enzymatic cleavage, metabolic studies were carried out in three well established incubation media for the investigation of transdermal administration.
Due to its similarities with human skin, in terms of enzyme activity and distribution, a porcine skin homogenate (25% w/w in PBS-buffer, 0.65 U/ml, 1.3 mg/ml (Bradford)) was used for the metabolic studies.
(§2) Incubation mixtures were prepared by adding a respective prodrug stock solution to porcine skin homogenate (PSH), human plasma and buffered porcine liver esterase (PLE), respectively.
(§3) All samples were incubated in a water bath at 37° C. After 72 h samples of the incubation mixtures (200 μl) were collected. To all samples 400 μl of ice-cold acetonitrile were added. After vortex mixing the samples were allowed to stand in a refrigerator for approx. 30 min. The samples were then centrifuged at 13000 rpm (13000 g) for 5 min. The supernatants were collected and stored at −78° C. until HPLC analysis. To 200 μl of each supernatant 400 μl of aqueous 0.05% trifluoroacetic acid were added prior to injection.
(§4) The kinetics of the hydrolysis of the cilazapril prodrugs in the different incubation media was analysed by HPLC or HPLC-MS.
(§5) The rate of hydrolysis of cilazapril, of some cilazapril prodrugs and cilazapril ethyl ester in porcine skin homogenate, human plasma and buffered porcine liver esterase at 37° C. are presented in Table 4.

in vitro = in vitro ADME
Description: as §1
Human plasma (CPD plasma, 3.82 U/ml), which contains i.a. cholinesterase and acetylcholinesterase, was used as the second incubation media.
as §2, §3, §4, §5

porcine liver esterase = test: Rate of hydrolysis in buffered porcine liver esterase at 37° C. (HPLC or HPLC-MS); format: in vitro ADME; settings: for half-life: pig
Description: as §1
(§6) Buffered porcine liver esterase (suspension in 3.2 M (NH4)2SO4 solution, pH 8, 12 mg prot./ml (Biuret), 260 U/mg prot.) was chosen as the third incubation media, because porcine liver esterase mimics the carboxylesterase present in the human skin.
as §2, §3, §4, §5

[2] = Metabolic studies in enzyme-containing incubation mixtures (porcine skin homogenate, human plasma, buffered porcine liver esterase), results in words; format: in vitro ADME; settings: 37° C.; for enzymatic cleavage / hydrolysis to cilazaprilate: incubation mixtures; for degradation / reaction kinetics of enzymatic hydrolysis: enzyme-containing incubation mixtures
Description: as §1, §6, §2
as §3, with “After 72 h samples of the incubation mixtures (200 μl) were collected.” left out
as §4

[3] = Stability of 10% cilazapril in an acrylic adhesive (Durotak 87-4098, Henkel); format: physicochemical; settings: 10% in acrylic adhesive Durotak 87-4098
Excerpt: Instability in a semisolid dosage form is also a problem with cilazapril. Although cilazapril has a more rigid structure than other ACE-inhibitors and has no distinct tendency to intramolecular cyclisation, it presents stability problems in adhesive layers of transdermal therapeutic systems as shown in Table 1.

[4] = Stability in transdermal therapeutic system (10% in BioPSA Hex 7-4302), extraction and HPLC; format: physicochemical; settings: TTS
Description: The stability of the prodrugs in the transdermal therapeutic system was determined after different storage times and temperatures by extraction of the transdermal therapeutic system with an organic solvent and subsequent analysis by HPLC.
The stability of the cilazapril prodrugs (1) and (2) in therapeutic transdermal systems was controlled at 25° C./60% relative humidity and compared with the cilazapril in a TTS having the same adhesive layer.

[5] = Crystallization in the TTS; format: physicochemical; settings: after 14 months
Excerpt: Moreover, the TTSs with the prodrugs (1), (2) and (6) were examined with regard to crystallization.

[6] = In vitro skin permeation from TTS through human skin (two-compartment diffusion cell); format: in vitro ADME; settings: TTS on human skin, 32±1° C., 96 hours, FIG. 1
Description: Furthermore the permeability of the prodrugs through the skin was measured by in vitro skin permeation. The in vitro skin permeation of the prodrugs (1), (2) and (6) and of cilazapril through human skin was evaluated using the TTS as prepared in any one of examples 8, 9, and 11.
The flux was determined by using a two-compartment diffusion cell with a section of human skin mounted between the cell halves. A TTS was adhered to one side of the skin and a drug-receiving medium was placed on the receptor-side of the cell. The apparatus was placed in a water bath maintained at 32±1° C. Samples of the receptor medium were collected over a period of 96 hours for HPLC analysis of drug concentration.

[7] = porcine skin homogenate, 37° C.
[8] = 9 months, 25° C./60% relative humidity

| Compound | enzymatic cleavage / hydrolysis to cilazaprilate [2] | half-life [1, 7] | half-life (porcine liver esterase) | assay [%] ([4]; 0 months, uncontrolled) | assay [%] [4, 8] | reaction kinetics in porcine skin homogenate [1] | f50% (h), time by which 50% of total cilazaprilate has been formed (in vitro; human) | half-life (in vitro; human, plasma) | degradation / reaction kinetics of enzymatic hydrolysis [2] | crystallization in the TTS [5] | in vitro skin flux compared to the cilazapril TTS [6] | further results |
| --- | --- | --- | --- | --- | --- | --- | --- | --- | --- | --- | --- | --- |
| CCOC(=O)[C@H](CCc1ccccc1)N[C@H]1CCCN2CCC[C@@H](C(=O)OCC)N2C1=O [cilazapril ethyl ester, reference compound] | no hydrolysis to cilazaprilate was detectable | – | – | – | – | – | – | – | – | – | – | t1/2 [1, 7]: 0.35 h; t1/2 (in vitro; human plasma, 37° C.): 11.9 h; t1/2 (porcine liver esterase): 0.69 h; enzymatic cleavage / hydrolysis to cilazaprilate ([2]; listed as ethyl ester of cilazapril): stable against enzymatic cleavage |
| CCOC(=O)[C@H](CCc1ccccc1)N[C@H]1CCCN2CCC[C@@H](C(=O)O)N2C1=O [cilazapril, (1S,9S)-9-[[(1S)-1-ethoxycarbonyl-3-phenylpropyl]amino]octahydro-10-oxo-6H-pyridazino[1,2-a][1,2]diazepine-1-carboxylic acid, reference compound] | – | 9.4 h | 3.3 h | 99.8% | 97.0% | – | – | – | – | – | – | assay [%] ([3]; 0 months, uncontrolled): 98.1%; assay [%] ([3]; 3 weeks, 25° C./60% relative humidity): 98.0%; assay [%] ([3]; 3 weeks, 40° C./75% relative humidity): 95.9%; assay [%] ([3]; 7 months, 25° C./60% relative humidity): 91.9%; assay [%] ([3]; 7 months, 40° C./75% relative humidity): 80.4%; half-life (in vitro; human plasma, 37° C., read-out: t1/2 (converted)): 88.8 h |
| CCOC(=O)OC(C)OC(=O)[C@@H]1CCCN2CCCC(N[C@@H](CCc3ccccc3)C(=O)OCC)C(=O)N12 (stereo partly drawn) [compound 1, (1S,9S)-1-(ethoxycarbonyloxy)ethyl 9-[[(1S)-1-ethoxycarbonyl-3-phenylpropyl]amino]-10-oxooctahydro-1H-pyridazino[1,2-a][1,2]diazepine-1-carboxylate] | formation of cilazaprilate as the final metabolite | 0.43 h | 0.67 h | 99.3% | 98.0% | fast reaction kinetics | 154 h | 0.58 h | fast degradation | none of the TTS showed crystallization | increase in in vitro skin flux | – |
| CCOC(=O)[C@H](CCc1ccccc1)NC1CCCN2CCC[C@@H](C(=O)OC(C)OC(=O)OC3CCCCC3)N2C1=O (stereo partly drawn) [compound 2, (1S,9S)-1-(cyclohexyloxycarbonyloxy)ethyl 9-[[(1S)-1-ethoxycarbonyl-3-phenylpropyl]amino]-10-oxooctahydro-1H-pyridazino[1,2-a][1,2]diazepine-1-carboxylate] | formation of cilazaprilate as the final metabolite | 1.4 h | 4.2 h | 100.0% | 98.3% | fast reaction kinetics | 228 h | 3.2 h | fast degradation | none of the TTS showed crystallization | increase in in vitro skin flux | – |
| CCOC(=O)[C@H](CCc1ccccc1)NC1CCCN2CCC[C@@H](C(=O)OC(C)OC(=O)OC(C)C)N2C1=O (stereo partly drawn) [compound 3, (1S,9S)-1-(isopropyloxycarbonyloxy)ethyl 9-[[(1S)-1-ethoxycarbonyl-3-phenylpropyl]amino]-10-oxooctahydro-1H-pyridazino[1,2-a][1,2]diazepine-1-carboxylate] | formation of cilazaprilate as the final metabolite | 1 h | 1.5 h | – | – | – | 108 h | 1.9 h | fast degradation | – | – | – |
| CCOC(=O)[C@H](CCc1ccccc1)NC1CCCN2CCC[C@@H](C(=O)OC(C)OC(C)=O)N2C1=O (stereo partly drawn) [compound 4, (1S,9S)-1-(acetoxy)ethyl 9-[[(1S)-1-ethoxycarbonyl-3-phenylpropyl]amino]-10-oxooctahydro-1H-pyridazino[1,2-a][1,2]diazepine-1-carboxylate] | formation of cilazaprilate as the final metabolite | 0.5 h | 0.63 h | – | – | – | 91.2 h | 0.68 h | fast degradation | – | – | – |
| CCOC(=O)[C@H](CCc1ccccc1)NC1CCCN2CCC[C@@H](C(=O)OC(C)OC(=O)C(C)(C)C)N2C1=O (stereo partly drawn) [compound 5, (1S,9S)-1-(2,2-dimethylpropanoyloxy)ethyl 9-[[(1S)-1-ethoxycarbonyl-3-phenylpropyl]amino]-10-oxooctahydro-1H-pyridazino[1,2-a][1,2]diazepine-1-carboxylate] | formation of cilazaprilate as the final metabolite | 1 h | 3.8 h | – | – | – | 33.6 h | 5.1 h | fast degradation | – | – | – |
| CCOC(=O)[C@H](CCc1ccccc1)N[C@H]1CCCN2CCC[C@@H](C(=O)OCCN3CCOCC3)N2C1=O [compound 6, (1S,9S)-2-morpholinoethyl 9-[[(1S)-1-ethoxycarbonyl-3-phenylpropyl]amino]-10-oxooctahydro-1H-pyridazino[1,2-a][1,2]diazepine-1-carboxylate] | – | 0.5 h | 0.95 h | 98.1% | 94.7% | fast reaction kinetics | 10.8 h | 1.3 h | fast reaction kinetics | none of the TTS showed crystallization | increase in in vitro skin flux | – |
| CCOC(=O)[C@H](CCc1ccccc1)NC1CCCN2CCC[C@@H](C(=O)OC(C)OC(=O)CN3CCOCC3)N2C1=O (stereo partly drawn) [compound 7, (1S,9S)-1-(2-morpholinoacetoxy)ethyl 9-[[(1S)-1-ethoxycarbonyl-3-phenylpropyl]amino]-10-oxooctahydro-1H-pyridazino[1,2-a][1,2]diazepine-1-carboxylate] | – | 0.33 h | 0.77 h | – | – | – | 132 h | 0.83 h | fast reaction kinetics | – | – | – |
